Reference: publication PMC8264259, “A Novel Ruthenium(II) Complex With Lapachol Induces G2/M Phase Arrest Through Aurora-B Kinase Down-Regulation and ROS-Mediated Apoptosis in Human Prostate Adenocarcinoma Cells” (Frontiers in Oncology, 2021)

What was measured:
[1] = system: Caco-2 (human colorectal adenocarcinoma); experiment: Alamar blue cytotoxicity assay, Caco-2; assay type: cell-based; conditions: for IC50: Caco-2, Alamar blue, 24-h incubation, mean ± S.E.M.
Source text: (§1) Human lung carcinoma (A549, ATCC® CCL-185™), human hepatocellular carcinoma (HepG2, ATCC® HB-8065™), and human breast adenocarcinoma (MDA-MB-231, ATCC® HTB-26™) were obtained from American Type Cell Collection (ATCC). Human melanoma (A-375, BCRJ-0278), Human colorectal adenocarcinoma (Caco-2, BCRJ 0059), human prostate adenocarcinoma (DU-145, BCRJ-0078, and PC-3, BCRJ-0269), human mouth fibroblast (FGH, BCRJ-0089), and human prostate epithelial cells (PNT-2, BCRJ-0366) were obtained from Rio de Janeiro Cells Bank (BCRJ). The cells A549, A-375, Caco-2, DU-145, HepG2, MDA-MB-231, and FGH were cultured in Dulbecco’s Modified Eagle’s Medium (DMEM, Gibco-Invitrogen®), PC-3 and PNT-2 cells were grown in Roswell Park Memorial Institute Medium (RPMI-1640, Gibco-Invitrogen®). Both mediums were supplemented according to the needs of each lineage, as recommended by its cell banks with 2 mM L-glutamine (Gibco-Invitrogen®), 10% or 20% fetal bovine serum (Gibco-Invitrogen®), 1% antibiotic-antimycotic solution (5 mg/ml penicillin, 5 mg/ml streptomycin, and 10 mg/ml neomycin, Gibco-Invitrogen®), and 3.7 g/L of NaHCO3 (Sigma-Aldrich). All cell lines were cultured in flasks at 37°C in 5% CO2 and 96% of relative humidity according to the procedures proposed by ([31]), and a mycoplasma stain kit (Sigma-Aldrich) was used to confirm the use of cells devoid of contamination. The assays were conducted between the third and the seventh-cell passage with sub-cultures every 3 to 4 days to maintain exponential growth. The cell viability was checked using the trypan blue dye exclusion assay for all experiments where over 95% of the cells were viable at the beginning of the tests.
(§2) The in vitro antiproliferative activity was quantified using the Alamar blue® assay, according to the method reported by ([32]). Cells were seeded in 96-well plates for all experiments (1.5 × 10^4 cells/well). After 24 h, the complexes were dissolved in DMSO and added to each well and incubated for 24 h. Dilutions of the complexes were prepared to obtain concentrations ranging from 0.3 to 100 μM. […] DMSO (0.1% v/v) was used as the vehicle control. Following 24 h of incubation, 50 μl of Alamar blue® (resazurin at 0.01% w/v, Sigma-Aldrich) was added to each well, and the plates were incubated, at 37°C, in the dark. Fluorescence reading was performed in a Synergy H1 Fluorescence Spectrophotometer (BioTek®), using excitation and emission filters at wavelengths of 560 and 590 nm, respectively. The fluorescence intensity was measured in arbitrary fluorescence units (AFU) and the AFU of untreated cells (CTL) was considered 100%. The cytotoxic effects of the compounds were estimated in terms of cell proliferation inhibition (%) and expressed as half-maximal inhibitory concentration (IC50). The cell proliferation inhibition percentage of cells exposed to treatments was calculated following: % Inhibition = 100 − (AFU of treated well/AFU of control well) × 100). The IC50 values were calculated from the cell proliferation inhibition percentage by nonlinear regression method using CompusSyn® Software.

[2] = system: DU-145 MCTSs; experiment: 3D multicellular tumor spheroids (MCTSs) culture; assay type: cell-based, human; conditions: for IC50: 3D spheroids, 24 h, Alamar blue, read-out: IC50 against the DU-145 MCTSs
Procedure: Multicellular tumor spheroids (MCTSs) were obtained according to the method reported by ([33]). Briefly, 200 μl of a solution of DU-145 cells (2.0 × 10^3 cells/well) were inserted in agarose-coated 96-well plates (1.5% w/v) and cultured in complete medium plus 3% Matrigel® (Corning). DU-145-MCTSs with stable structures had formed after five days. […] Negative control received the vehicle (DMSO 0.1% v/v) that was used for diluting the compounds tested. Finally, the MCTS proliferation inhibition (%) and IC50 were determined by Alamar blue® assay as described above. To investigate morphological changes other MCTSs were treated with 0.25, 0.5, 1.0, 1.5, and 2.0 μM of complex (2) and examined for 7 days. Spheroid integrity and diameter of MCTSs were analyzed by phase-contrast microscopy (Inverted Trinocular Microscope Opton TNB-O5T-PL) using AxioVision LE software (Carl Zeiss, Germany).

[3] = system: A-375 (human malignant melanoma); experiment: Alamar blue cytotoxicity assay, A-375; assay type: cell-based; conditions: for IC50: A-375, Alamar blue, 24-h incubation, mean ± S.E.M.
Source text: as §1, §2

[4] = system: DU-145 (human prostate adenocarcinoma); experiment: Alamar blue cytotoxicity assay, DU-145; assay type: cell-based; conditions: for IC50: DU-145, Alamar blue, 24-h incubation, mean ± S.E.M.
Source text: as §1, §2

[5] = system: PNT-2 (human prostate epithelial cells); experiment: Alamar blue cytotoxicity assay, PNT-2 non-cancer cells; assay type: cell-based; conditions: 24-h incubation, mean ± S.E.M.
Source text: as §1, §2

CC(C)=CCC1=C([O-])C(=O)c2ccccc2C1=O.F[P-](F)(F)(F)(F)F.[Ru+2].c1ccc(-c2ccccn2)nc1.c1ccc(P(CP(c2ccccc2)c2ccccc2)c2ccccc2)cc1 [complex (1), [Ru(Lap)(dppm)(bipy)]PF6]
IC50 [1]: 2 ± 0.6 µM | Selectivity index (SI) ([1]; SI = IC50[FGH]/IC50[Caco-2]): 1.5 | Selectivity index (SI) ([1]; SI = IC50[PNT-2]/IC50[Caco-2]): 2.9 | IC50 [2]: 2.4 µM | IC50 [3]: 2.5 ± 0.6 µM | Selectivity index (SI) ([3]; SI = IC50[FGH]/IC50[A-375]): 1.2 | Selectivity index (SI) ([3]; SI = IC50[PNT-2]/IC50[A-375]): 2.4 | IC50 [4]: 0.9 ± 0.2 µM | Selectivity index (SI) ([4]; SI = IC50[FGH]/IC50[DU-145]): 3.4 | Selectivity index (SI) ([4]; SI = IC50[PNT-2]/IC50[DU-145]): 6.5 | IC50 [5]: 5.9 ± 2.1 µM

CC(C)=CCC1=C([O-])C(=O)c2ccccc2C1=O.F[P-](F)(F)(F)(F)F.[Ru+2].c1ccc(P(CP(c2ccccc2)c2ccccc2)c2ccccc2)cc1.c1cnc2c(c1)ccc1cccnc12 [complex (2), [Ru(Lap)(dppm)(phen)]PF6]
IC50 [1]: 1.2 ± 0.3 µM | Selectivity index (SI) ([1]; SI = IC50[FGH]/IC50[Caco-2]): 2.0 | Selectivity index (SI) ([1]; SI = IC50[PNT-2]/IC50[Caco-2]): 5.7 | IC50 [2]: 1.9 µM | total spheroid area over time ([2]; DU-145 MCTSs treated with 0.25-2.0 μM, examined for 7 days): decrease in the total spheroid area | more potent than cisplatin (fold) ([2]; DU-145 MCTSs, IC50 ratio vs cisplatin): ≥ 32 fold | IC50 [3]: 0.9 ± 0.3 µM | Selectivity index (SI) ([3]; SI = IC50[FGH]/IC50[A-375]): 2.7 | Selectivity index (SI) ([3]; SI = IC50[PNT-2]/IC50[A-375]): 7.5 | IC50 [4]: 0.8 ± 0.1 µM | cell viability with ROS scavenger NAC ([4]; DU-145, cotreatment with 5 mM NAC, 24 h, Alamar blue): prevented the reduction of cell viability | Selectivity index (SI) ([4]; SI = IC50[FGH]/IC50[DU-145]): 3.1 | Selectivity index (SI) ([4]; SI = IC50[PNT-2]/IC50[DU-145]): 8.5 | IC50 [5]: 6.8 ± 1.5 µM
